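Growth conditions: 96-well plates. Treatment: test compound, 48 hours, 5 concentrations. Analysis: linear interpolation between bracketing concentrations; unreached endpoints set to highest concentration. GI50 = concentration required for 50% inhibition of growth. TGI is the concentration that stops growth completely.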
Key:
Experiment in all cases: DTP human tumour cell line panel, 48 h
NCI-H23 lung = system: NCI-H23 lung
NCI-H460 lung = system: NCI-H460 lung
NCI-H522 lung = system: NCI-H522 lung
NCI/ADR-RES ovarian = system: NCI/ADR-RES ovarian
OVCAR-3 ovarian = system: OVCAR-3 ovarian
OVCAR-4 ovarian = system: OVCAR-4 ovarian
OVCAR-5 ovarian = system: OVCAR-5 ovarian
OVCAR-8 ovarian = system: OVCAR-8 ovarian
PC-3 prostate = system: PC-3 prostate
RPMI-8226 leukemia = system: RPMI-8226 leukemia
RXF 393 renal = system: RXF 393 renal
SF-268 CNS = system: SF-268 CNS
SF-295 CNS = system: SF-295 CNS
SF-539 CNS = system: SF-539 CNS
SK-MEL-2 melanoma = system: SK-MEL-2 melanoma
SK-MEL-28 melanoma = system: SK-MEL-28 melanoma
SK-MEL-5 melanoma = system: SK-MEL-5 melanoma
SK-OV-3 ovarian = system: SK-OV-3 ovarian
SN12C renal = system: SN12C renal
SNB-19 CNS = system: SNB-19 CNS
SNB-75 CNS = system: SNB-75 CNS
SR leukemia = system: SR leukemia
SW-620 colon = system: SW-620 colon
T-47D breast = system: T-47D breast
TK-10 renal = system: TK-10 renal
U251 CNS = system: U251 CNS
UACC-257 melanoma = system: UACC-257 melanoma
UACC-62 melanoma = system: UACC-62 melanoma
UO-31 renal = system: UO-31 renal

## CC1OC2CC(=O)OC2C2=C1C(=O)c1c(O)c3c(c(O)c1C2=O)C1CC(O)C3(O)C(C)O1 (stereo not drawn)
NCI-H23 lung
  GI50: 414 nM
  TGI: 1550 nM
NCI-H460 lung
  GI50: 784 nM
  TGI: 3140 nM
NCI-H522 lung
  GI50: 195 nM
  TGI: 447 nM
NCI/ADR-RES ovarian
  GI50: 273 nM
  TGI: 917 nM
OVCAR-3 ovarian
  GI50: 207 nM
  TGI: 629 nM
OVCAR-4 ovarian
  GI50: 381 nM
  TGI: 1230 nM
OVCAR-5 ovarian
  GI50: 292 nM
  TGI: 879 nM
OVCAR-8 ovarian
  GI50: 271 nM
  TGI: 3500 nM
PC-3 prostate
  GI50: 533 nM
  TGI: 6470 nM
RPMI-8226 leukemia
  GI50: 267 nM
  TGI: 876 nM
RXF 393 renal
  GI50: 1200 nM
  TGI: 2510 nM
SF-268 CNS
  GI50: 303 nM
  TGI: 1150 nM
SF-295 CNS
  GI50: 975 nM
  TGI: 3290 nM
SF-539 CNS
  GI50: 458 nM
  TGI: 1370 nM
SK-MEL-2 melanoma
  GI50: 701 nM
  TGI: 2260 nM
SK-MEL-28 melanoma
  GI50: 1210 nM
  TGI: 2740 nM
SK-MEL-5 melanoma
  GI50: 1230 nM
  TGI: 2500 nM
SK-OV-3 ovarian
  GI50: 3240 nM
  TGI: 11100 nM
SN12C renal
  GI50: 211 nM
  TGI: 539 nM
SNB-19 CNS
  GI50: 1940 nM
  TGI: 5840 nM
SNB-75 CNS
  GI50: 1590 nM
  TGI: 3640 nM
SR leukemia
  GI50: 344 nM
  TGI: 5860 nM
SW-620 colon
  GI50: 168 nM
  TGI: 774 nM
T-47D breast
  GI50: 336 nM
  TGI: 1550 nM
TK-10 renal
  GI50: 302 nM
  TGI: 1120 nM
U251 CNS
  GI50: 296 nM
  TGI: 1070 nM
UACC-257 melanoma
  GI50: 212 nM
  TGI: 525 nM
UACC-62 melanoma
  GI50: 734 nM
  TGI: 2130 nM
UO-31 renal
  GI50: 300 nM
  TGI: 1530 nM

Reference: PubChem BioAssay (NCI)
